The results in this text go back to patent publication US20100317524A1, “Sulfonylureas” (Bayer CropScience AG, priority 2005, published 2010).

In experiment [1] the test system is weed plants such as Sinapis alba, Chrysanthemum segetum, Avena sativa, Stellaria media, Echinochloa crus-galli, Lolium multiflorum, Setaria viridis, Abutilon …. As to the kind of experiment: Pre-emergence effect on weeds (greenhouse pot test, visual scoring). It counts as in vivo. Particulars: applied pre-emergence at a rate of 0.3 kg or less of active substance per hectare; visual scoring after 3 to 4 weeks vs untreated controls. The text has this:
Seeds or sections of rhizome from monocot and dicot weed plants were laid out in sandy loam soil in cardboard pots, and covered with soil. The compounds of the invention, formulated as wettable powders or emulsifiable concentrates, were then applied, in the form of aqueous suspensions or emulsions, at various dosages, onto the surface of the covering earth, at an application rate of 600 to 800 l of water per hectare (converted). Following the treatment, the pots were placed in a greenhouse and maintained under good growth conditions for the weeds. Visual scoring of the plant damage or emergence damage was made when the test plants had emerged, after a test time of 3 to 4 weeks, in comparison to untreated controls.

In experiment [2] the test system is weed plants such as Sinapis alba, Echinochloa crus-galli, Lolium multiflorum, Chrysanthemum segetum, Setaria viridis, Abutilon theophrasti, Amaranthus …. As to the kind of experiment: Post-emergence effect on weeds (greenhouse pot test, visual scoring). The experiment is classed as in vivo. Particulars: applied post-emergence (three-leaf stage) at a rate of 0.3 kg or less of active substance per hectare; visual scoring after about 3 to 4 weeks vs untreated controls. The protocol: Seeds or sections of rhizome from monocot and dicot broadleaf weeds were laid out in sandy loam soil in plastic pots, covered with earth, and cultivated in a greenhouse under good growth conditions. Three weeks after sowing, the test plants were treated at the three-leaf stage. The compounds of the invention, formulated as wettable powders or as emulsion concentrates, were sprayed in different dosages onto the green parts of the plants, at an application rate of 600 to 800 l of water per hectare (converted). After the test plants had stood in the greenhouse under optimum growth conditions for a period of about 3 to 4 weeks, the effect of the products was scored visually in comparison to untreated controls.

Turning to `COc1nc(C)nc(NC(=O)NS(=O)(=O)c2c(I)cccc2OCC(F)(F)C(F)(F)F)n1` [Compound 1.370], the “herbicidal action against weed plants, pre-emergence” value (shortened to “herbicidal action … pre-emergence”) in experiment [1] is “very good herbicidal action”. Further, in experiment [2], the “herbicidal action against weed plants, post-emergence” value (“herbicidal action … post-emergence” for short) is reported as “very good herbicidal action”.

On to `COc1cc(Cl)nc(NC(=O)NS(=O)(=O)c2c(I)cccc2SC)n1` [Compound 1.551], for which the “herbicidal action … pre-emergence” value in experiment [1] is on record as “very good herbicidal action”. Moreover, the “herbicidal action … post-emergence” value in experiment [2] is listed as “very good herbicidal action”.

Take `COc1nc(C)nc(NC(=O)NS(=O)(=O)c2c(C)cccc2I)n1` [Compound 1.016]: in experiment [1], the “herbicidal action … pre-emergence” value is “very good herbicidal action”. Besides, in experiment [2], the “herbicidal action … post-emergence” value is on record as “very good herbicidal action”.

Regarding `CCCCOc1cccc(I)c1S(=O)(=O)NC(=O)Nc1nc(Cl)cc(OC)n1` [Compound 1.555], in experiment [1], the “herbicidal action … pre-emergence” value was “very good herbicidal action”. Also, the “herbicidal action … post-emergence” value in experiment [2] was “very good herbicidal action”.

As for `COc1nc(C)nc(NC(=O)NS(=O)(=O)c2c(I)cccc2OCC(F)F)n1` [Compound 1.352], the “herbicidal action … pre-emergence” value in experiment [1] is recorded as “very good herbicidal action”. For the same compound, the “herbicidal action … post-emergence” value in experiment [2] is “very good herbicidal action”.

Consider `CCOc1cccc(I)c1S(=O)(=O)NC(=O)Nc1nc(C)cc(C)n1` [Compound 1.166], for which the “herbicidal action … pre-emergence” value in experiment [1] is “very good herbicidal action”. Moreover, in experiment [2], the “herbicidal action … post-emergence” value is given as “very good herbicidal action”.

`COc1nc(C)nc(NC(=O)NS(=O)(=O)c2c(I)cccc2OC(C)C)n1` [Compound 1.182]: in experiment [1], the “herbicidal action … pre-emergence” value was “very good herbicidal action”. Moreover, the “herbicidal action … post-emergence” value in experiment [2] was “very good herbicidal action”.

Turning to `Cc1cc(C)nc(NC(=O)NS(=O)(=O)c2c(I)cccc2OC(C)C)n1` [Compound 1.186], the “herbicidal action … pre-emergence” value in experiment [1] is given as “very good herbicidal action”. Besides, the “herbicidal action … post-emergence” value in experiment [2] is “very good herbicidal action”.

For the compound `COc1cc(Cl)nc(NC(=O)NS(=O)(=O)c2c(I)cccc2OCC(F)(F)C(F)(F)F)n1` [Compound 1.372], the “herbicidal action … pre-emergence” value in experiment [1] was “very good herbicidal action”. For the same compound, the “herbicidal action … post-emergence” value in experiment [2] was “very good herbicidal action”.

For the compound `COc1nc(NC(=O)NS(=O)(=O)c2c(OC)ccc(Cl)c2I)nc(OC)n1` [Compound 1.602], the “herbicidal action … pre-emergence” value in experiment [1] is on record as “very good herbicidal action”. Moreover, the “herbicidal action … post-emergence” value in experiment [2] is given as “very good herbicidal action”.

As to `COc1nc(C)nc(NC(=O)NS(=O)(=O)c2c(I)cccc2OCC2CC2)n1` [Compound 1.233], the “herbicidal action … pre-emergence” value in experiment [1] was “very good herbicidal action”. In addition, the “herbicidal action … post-emergence” value in experiment [2] is “very good herbicidal action”.

In the case of `COc1nc(C)nc(NC(=O)NS(=O)(=O)c2c(I)cccc2SC)n1` [Compound 1.390], the “herbicidal action … pre-emergence” value in experiment [1] is recorded as “very good herbicidal action”. Further, the “herbicidal action … post-emergence” value in experiment [2] is on record as “very good herbicidal action”.

As for `CCCCOc1cccc(I)c1S(=O)(=O)NC(=O)Nc1nc(C)nc(OC)n1` [Compound 1.553], the “herbicidal action … pre-emergence” value in experiment [1] was “very good herbicidal action”. Also, in experiment [2], the “herbicidal action … post-emergence” value is recorded as “very good herbicidal action”.

Consider `COc1cc(Cl)nc(NC(=O)NS(=O)(=O)c2c(I)cccc2OS(=O)(=O)N(C)C)n1` [Compound 1.510], for which the “herbicidal action … pre-emergence” value in experiment [1] is reported as “very good herbicidal action”. Also, the “herbicidal action … post-emergence” value in experiment [2] is “very good herbicidal action”.

As for `COc1nc(NC(=O)NS(=O)(=O)c2c(I)cccc2OC(C)C)nc(OC)n1` [Compound 1.191], the “herbicidal action … pre-emergence” value in experiment [1] was “very good herbicidal action”. Further, the “herbicidal action … post-emergence” value in experiment [2] is on record as “very good herbicidal action”.

Take `COc1cc(OC)nc(NC(=O)NS(=O)(=O)c2c(C)cccc2I)n1` [Compound 1.012]: the “herbicidal action … pre-emergence” value in experiment [1] is “very good herbicidal action”. For the same compound, the “herbicidal action … post-emergence” value in experiment [2] is “very good herbicidal action”.

As to `COc1cc(Cl)nc(NC(=O)NS(=O)(=O)c2c(I)cccc2OC(F)(F)F)n1` [Compound 1.311], the “herbicidal action … pre-emergence” value in experiment [1] is recorded as “very good herbicidal action”. In addition, the “herbicidal action … post-emergence” value in experiment [2] was “very good herbicidal action”.

As for `COc1cc(OC)nc(NC(=O)NS(=O)(=O)c2c(OC)ccc(Cl)c2I)n1` [Compound 1.598], the “herbicidal action … pre-emergence” value in experiment [1] is reported as “very good herbicidal action”. In addition, the “herbicidal action … post-emergence” value in experiment [2] is recorded as “very good herbicidal action”.

Regarding `CCCOc1cccc(I)c1S(=O)(=O)NC(=O)Nc1nc(Cl)cc(OC)n1` [Compound 1.174], the “herbicidal action … pre-emergence” value in experiment [1] is “very good herbicidal action”. Also, the “herbicidal action … post-emergence” value in experiment [2] is given as “very good herbicidal action”.

Consider `COc1cc(Cl)nc(NC(=O)NS(=O)(=O)c2c(OC)ccc(Cl)c2I)n1` [Compound 1.601], for which the “herbicidal action … pre-emergence” value in experiment [1] is on record as “very good herbicidal action”. Also, the “herbicidal action … post-emergence” value in experiment [2] is “very good herbicidal action”.

In the case of `CCC(C)Oc1cccc(I)c1S(=O)(=O)NC(=O)Nc1nc(OC)cc(OC)n1` (stereo not shown) [Compound 1.196], in experiment [1], the “herbicidal action … pre-emergence” value is “very good herbicidal action”. The “herbicidal action … post-emergence” value in experiment [2] is recorded as “very good herbicidal action”.

In the case of `CCC(C)Oc1cccc(I)c1S(=O)(=O)NC(=O)Nc1nc(C)cc(C)n1` (stereo not shown) [Compound 1.558], the “herbicidal action … pre-emergence” value in experiment [1] is recorded as “very good herbicidal action”. Moreover, the “herbicidal action … post-emergence” value in experiment [2] was “very good herbicidal action”.

As to `COc1cc(Cl)nc(NC(=O)NS(=O)(=O)c2c(I)cccc2OS(C)(=O)=O)n1` [Compound 1.472], the “herbicidal action … pre-emergence” value in experiment [1] was “very good herbicidal action”. Further, the “herbicidal action … post-emergence” value in experiment [2] was “very good herbicidal action”.

As for `COc1cc(Cl)nc(NC(=O)NS(=O)(=O)c2c(F)cccc2I)n1` [Compound 1.004], the “herbicidal action … pre-emergence” value in experiment [1] is “very good herbicidal action”. Moreover, in experiment [2], the “herbicidal action … post-emergence” value is given as “very good herbicidal action”.

Consider `COc1cc(OC)nc(NC(=O)NS(=O)(=O)c2c(I)cccc2OS(=O)(=O)N(C)C)n1` [Compound 1.507], for which the “herbicidal action … pre-emergence” value in experiment [1] is on record as “very good herbicidal action”. Further, the “herbicidal action … post-emergence” value in experiment [2] is “very good herbicidal action”.

Consider `COc1cc(Cl)nc(NC(=O)NS(=O)(=O)c2c(I)cccc2OCC(F)(F)F)n1` [Compound 1.344], for which the “herbicidal action … pre-emergence” value in experiment [1] is listed as “very good herbicidal action”. For the same compound, the “herbicidal action … post-emergence” value in experiment [2] is reported as “very good herbicidal action”.

Regarding `CCC(C)Oc1cccc(I)c1S(=O)(=O)NC(=O)Nc1nc(OC)nc(OC)n1` (stereo not shown) [Compound 1.560], the “herbicidal action … pre-emergence” value in experiment [1] is listed as “very good herbicidal action”. For the same compound, the “herbicidal action … post-emergence” value in experiment [2] is on record as “very good herbicidal action”.

Consider `COc1cc(Cl)nc(NC(=O)NS(=O)(=O)c2c(I)cccc2OCC(C)C)n1` [Compound 1.563], for which the “herbicidal action … pre-emergence” value in experiment [1] was “very good herbicidal action”. In addition, the “herbicidal action … post-emergence” value in experiment [2] is on record as “very good herbicidal action”.

In the case of `COc1nc(C)nc(NC(=O)NS(=O)(=O)c2c(I)cccc2OC)n1` [Compound 1.150], in experiment [1], the “herbicidal action … pre-emergence” value was “very good herbicidal action”. For the same compound, the “herbicidal action … post-emergence” value in experiment [2] is on record as “very good herbicidal action”.

`COc1cc(OC)nc(NC(=O)NS(=O)(=O)c2c(I)cccc2OC(C)C(F)(F)F)n1` (stereo not shown) [Compound 1.362]: the “herbicidal action … pre-emergence” value in experiment [1] is on record as “very good herbicidal action”. For the same compound, the “herbicidal action … post-emergence” value in experiment [2] was “very good herbicidal action”.

Take `CCOc1cccc(I)c1S(=O)(=O)NC(=O)Nc1nc(Cl)cc(OC)n1` [Compound 1.167]: the “herbicidal action … pre-emergence” value in experiment [1] is on record as “very good herbicidal action”. Also, the “herbicidal action … post-emergence” value in experiment [2] is “very good herbicidal action”.

`COc1cc(Cl)nc(NC(=O)NS(=O)(=O)c2c(I)cccc2OCC2CC2)n1` [Compound 1.238]: the “herbicidal action … pre-emergence” value in experiment [1] is recorded as “very good herbicidal action”. Further, in experiment [2], the “herbicidal action … post-emergence” value is “very good herbicidal action”.

With `COc1nc(NC(=O)NS(=O)(=O)c2c(I)cccc2OS(=O)(=O)N(C)C)nc(OC)n1` [Compound 1.511], the “herbicidal action … pre-emergence” value in experiment [1] was “very good herbicidal action”. Moreover, the “herbicidal action … post-emergence” value in experiment [2] is recorded as “very good herbicidal action”.

Consider `Cc1cc(C)nc(NC(=O)NS(=O)(=O)c2c(C)cccc2I)n1` [Compound 1.020], for which the “herbicidal action … pre-emergence” value in experiment [1] is “very good herbicidal action”. Besides, the “herbicidal action … post-emergence” value in experiment [2] was “very good herbicidal action”.

Regarding `COc1nc(NC(=O)NS(=O)(=O)c2c(I)cccc2OCC(F)(F)C(F)(F)F)nc(OC)n1` [Compound 1.373], the “herbicidal action … pre-emergence” value in experiment [1] is reported as “very good herbicidal action”. In addition, the “herbicidal action … post-emergence” value in experiment [2] is reported as “very good herbicidal action”.
